Earlier results, collected in patent US4513029A, “Sea water antifouling method” (priority 1982, dated 1985).

System: mice
Details: oral administration to mice (after 24 hours)

| Compound | LD50 |
| --- | --- |
| [Cu].[O]=[Cu] [copper suboxide] | not more than 1,000 mg/kg |
| CC(=O)[O-].c1cc[c]([Sn+]([c]2ccccc2)[c]2ccccc2)cc1 [tripenyltin acetate] | not more than 1,000 mg/kg |
| [Cl][Sn]([c]1ccccc1)([c]1ccccc1)[c]1ccccc1 [triphenyltin chloride] | not more than 1,000 mg/kg |
| [OH][Sn]([c]1ccccc1)([c]1ccccc1)[c]1ccccc1 [triphenyltin hydroxide] | not more than 1,000 mg/kg |
